# Assay results published in patent US20240208901A1, “Deuterated 3,3'-Diselenodipropionic Acid (DSePA) and Its Use as an Anticancer or Radioprotective Agent” (Secretary, Department of Atomic Energy, priority 2022, published 2024).
# What was measured:
# WI-38 cells = assay: Clonogenic assay, radioprotection of WI-38 cells against γ-irradiation; type: cell-based, human; settings: γ-irradiation 2-12 Gy
# Protocol: Further, clonogenic assay is considered as the gold standard method for evaluating the anticancer activity of any compound and is also a good indicator of the in vivo efficacy of any anticancer compound. Therefore, the therapeutic index of DSePA and D-DSePA in A549/WI-38 cells was also validated by employing the clonogenic assay. For this, A549/WI-38 cells were treated with the varying concentrations (0.1-2 μM)/(1-500 μM) of DSePA/D-DSePA for seven days and the survival fraction was calculated by counting the number of surviving clones (FIG. 11A). The plot of survival fraction verses the concentration of DScPA/D-DSCPA was used to estimate the IC50 of above compounds to inhibit the growth of A549/WI-38 cells. […] This clearly confirmed that deuteration of DScPA reduced its toxicity in normal cells without compromising its efficacy in cancer cells. Since anticancer agents are intended to be used in combination with radiation, DSePA/D-DSePA at a treatment concentration of 0.5 μM (dose close to IC50 as determined by clonogenic assay) was combined with varying absorbed doses (2-8 Gy) of γ-irradiation and the effect of combinatorial treatment on the viability of A549 cells was determined by clonogenic assay (FIG. 12A & 12B). For this, A549 cells exposed to the varying absorbed doses (2-8 Gy) of γ-radiation were immediately treated with DScPA/D-DScPA and cultured for seven days prior to clonogenic assay. […] The D10 value of the combinatorial treatment involving DScPA estimated was 4.5 Gy (FIG. 12B). […]
# (§1) Clonogenic assay—Clonogenic assay was performed according to the method reported previously. […] After 7 days, colonies were fixed with absolute methanol for 5 min, stained with 0.5% crystal violet for 5 min, washed with distilled water to remove excess stain and counted manually under a stereo microscope. […] The plating efficiency and the survival fraction under irradiated and drug treated conditions were calculated using following formulae: […]
# (§2) The plating efficiency of A549 and WI38 cells was calculated by seeding ˜300 and ˜500 cells respectively. […]
# A549 cells = assay: Clonogenic assay, combinatorial treatment with γ-irradiation in A549 cells; type: cell-based, human
# Protocol: Further, clonogenic assay is considered as the gold standard method for evaluating the anticancer activity of any compound and is also a good indicator of the in vivo efficacy of any anticancer compound. Therefore, the therapeutic index of DSePA and D-DSePA in A549/WI-38 cells was also validated by employing the clonogenic assay. For this, A549/WI-38 cells were treated with the varying concentrations (0.1-2 μM)/(1-500 μM) of DSePA/D-DSePA for seven days and the survival fraction was calculated by counting the number of surviving clones (FIG. 11A). The plot of survival fraction verses the concentration of DScPA/D-DSCPA was used to estimate the IC50 of above compounds to inhibit the growth of A549/WI-38 cells. […] This clearly confirmed that deuteration of DScPA reduced its toxicity in normal cells without compromising its efficacy in cancer cells. Since anticancer agents are intended to be used in combination with radiation, DSePA/D-DSePA at a treatment concentration of 0.5 μM (dose close to IC50 as determined by clonogenic assay) was combined with varying absorbed doses (2-8 Gy) of γ-irradiation and the effect of combinatorial treatment on the viability of A549 cells was determined by clonogenic assay (FIG. 12A & 12B). For this, A549 cells exposed to the varying absorbed doses (2-8 Gy) of γ-radiation were immediately treated with DScPA/D-DScPA and cultured for seven days prior to clonogenic assay. […] The D10 value of the combinatorial treatment involving DScPA estimated was 4.5 Gy (FIG. 12B). Similarly, D10 value of the combinatorial treatment involving D-DSePA estimated was 4 Gy. From these values, the dose modification factor (DMF or the ratio of the D10 of combinatorial treatment to that of D10 of radiation) of DScPA and D-DScPA estimated was 0.87±0.01 and 0.83±0.02 respectively. […] While the objective of radiotherapy is to achieve tumor control, it is also known to cause normal tissue toxicity. Previously, DSePA has been reported to protect normal cells from lethal effects of γ-radiation. Thus radio-protective activity of D-DSePA was compared with DScPA in terms of their abilities to protect non-cancerous lung fibroblast (WI-38) cells against γ-irradiation induced cell death. For this, WI-38 cells were pretreated with DSePA/D-DScPA for 24 h at an identical concentration of 0.5 μM (close to IC50 required to inhibit growth of A549 lung cancer cells by clonogenic assay) and then exposed to varying doses (2-12 Gy) of γ-irradiation. The survival of cells against radiation exposure was estimated by clonogenic assay and the dose response curve was prepared in the presence and absence of drug (DSePA/D-DScPA) (FIG. 12C & 12D). By using this dose response curve, the dose modification factor (DMF or the ratio of the D10 of radiation plus drug and D10 of radiation alone) of DSePA and D-DSePA estimated was 1.12±0.03 and 1.16±0.05 respectively.
# as §1, §2
# [1] = tested on: lung cancer cell lines (A549, H1975 and H3122) versus normal lung cells (WI-38 and WI-26 VA4); assay: Therapeutic index by MTT assay, lung cancer cell lines versus normal lung cells; type: cell-based, human; settings: for Therapeutic Index (IC50 in normal cell / IC50 in cancer cells): 48 h post-treatment
# Protocol: Therefore, D-DSePA was compared with un-deuterated DSePA for its anticancer activity in A549, H1975 and H3122 cell lines which are representative of NSCLC. For this, above cells were treated with the varying concentrations (0.1-100 μM) of DSePA/D-DSePA for 48 h and the cell viability was determined by MTT assay (FIG. 9A-C). The plot of percent (%) cytotoxicity (100-% viability) versus the concentration of DSePA/D-DSePA was used to estimate the half maximum concentration (IC50) of above compounds to inhibit the proliferation of cells. […] Similarly, the toxicity of DSePA/D-DSePA was studied in non-cancerous lung fibroblast cells, WI-38 and WI-26 VA4 in the concentration range of 0.1 to 1000 μM at 48 h post treatment by MTT assay (FIG. 9D and 9E). […] Employing these values, the therapeutic index (IC50 in normal lung cell/IC50 in lung cancer cell) of DSePA and D-DSePA in different pairs of normal versus cancerous cells (viz., A549/WI-38, A549/WI-26 VA4, H1975/WI-38, H1975/WI-26 VA4, H3122/WI-38 and H3122/WI-26 VA4) was calculated (Table-3). […] The average therapeutic index of DSePA and D-DSePA estimated from above study was 11.05±1.5 and 78.7±29.2 respectively (FIG. 10).
# MTT Assay—To evaluate the anti-proliferative effect of D-DScPA and DScPA, Cells (˜5×10^3) suspended in 100 μl of complete culture medium were seeded in each well of 96 well plates. The cells were allowed to attach and grow for 24 h, treated with desired concentrations of D-DSePA/DScPA dissolved in culture medium for 48 h and then processed for MTT assay as described in literature. The percentage (%) cytotoxicity was calculated from the decrease in absorbance at 570 nm of treated groups as compared to that of control group. The % cytotoxicity was plotted as a function of the concentration of D-DSePA and DSePA and from this curve, the concentration of D-DSePA/DScPA causing 50% toxicity (IC50) was estimated. The therapeutic index was calculated by normalizing the IC50 concentration of D-DSePA/DSePA in non-cancerous cells to that in cancerous cells.
# [2] = tested on: non-cancerous human lung fibroblast cells (WI-38 & WI-26 VA4); assay: MTT assay, non-cancerous human lung fibroblast cells (summary statement); type: cell-based; settings: WI-38 & WI-26 VA4 cells
# Source text: 3,3′-Disclenodipropionic acid-D8 (D-DSePA, chemical structure shown in FIG. 1) was synthesized by reacting freshly prepared sodium selenide (Na2Se2) and 3-bromopropionic acid-D4 in D2O solvent with 42% yield. The synthesized D-DSePA was purified and characterized by NMR spectroscopy and mass spectrometry. The molecular structure of D-DSePA has been established by single-crystal X-ray diffraction analysis. The treatment of D-DSePA and un-deuterated DSePA inhibited the growth of human NSCLC cells such as A549, H1975 and H3122 with half maximum concentration (IC50) in the range of 5-50 μM by MTT assay. […] Finally, at identical treatment concentration, D-DSePA offered better radioprotection to non-cancerous WI38 cells with a dose modification factor (DMF) of 1.16±0.05 as compared to un-deuterated DScPA with DMF of 1.12±0.03.
# MTT Assay—To evaluate the anti-proliferative effect of D-DScPA and DScPA, Cells (˜5×10^3) suspended in 100 μl of complete culture medium were seeded in each well of 96 well plates. […] The percentage (%) cytotoxicity was calculated from the decrease in absorbance at 570 nm of treated groups as compared to that of control group. […] The therapeutic index was calculated by normalizing the IC50 concentration of D-DSePA/DSePA in non-cancerous cells to that in cancerous cells.
structure (smiles),measurement,setting,value
"[2H]C([2H])([Se][Se]C([2H])([2H])C([2H])([2H])C(=O)O)C([2H])([2H])C(=O)O [D-DSePA, 3,3′-diselenodipropionic acid-D8]","dose modification factor (DMF, D10 of radiation plus drug / D10 of radiation alone)","WI-38 cells; WI-38 cells pretreated 24 h with 0.5 μM drug, clonogenic assay",1.16±0.05
same,radioprotective activity in normal lung cells,"WI-38 cells; WI-38 cells, 0.5 μM 24 h pre-treatment",exhibited radioprotective activity in normal lung cells
same,"dose modification factor (DMF, D10 of combinatorial treatment / D10 of radiation)",A549 cells; 0.5 μM drug immediately after γ-radiation (2-8 Gy),0.83±0.02
same,effect on radiation kill of lung cancer cells,A549 cells; 0.5 μM with γ-radiation 2-8 Gy,did not protect lung cancer cells from radiation kill
same,D10 value (decimal reduction dose) of the combinatorial treatment,"A549 cells; γ-radiation 2-8 Gy then 0.5 μM drug immediately, seven days, radiation alone D10 5 Gy",4 Gy
same,Therapeutic Index (IC50 in normal cell / IC50 in cancer cells),"[1]; A549/WI-26 VA4, MTT assay",36.2 ± 1.9
same,Therapeutic Index (IC50 in normal cell / IC50 in cancer cells),"[1]; A549/WI-38, MTT assay",65.7 ± 3.3
same,Therapeutic Index (IC50 in normal cell / IC50 in cancer cells),"[1]; H1975/WI-26 VA4, MTT assay",119.6 ± 5.9
same,Therapeutic Index (IC50 in normal cell / IC50 in cancer cells),"[1]; H1975/WI-38, MTT assay",217.4 ± 10.9
same,Therapeutic Index (IC50 in normal cell / IC50 in cancer cells),"[1]; H3122/WI-26 VA4, MTT assay",11.8 ± 0.6
same,Therapeutic Index (IC50 in normal cell / IC50 in cancer cells),"[1]; H3122/WI-38, MTT assay",21.5 ± 1.0
same,average therapeutic index,"[1]; mean of six normal/cancer cell pairs, mean±SEM (n=6), MTT assay",78.7±29.2
same,higher therapeutic index as compared to un-deuterated DSePA,"[1]; non-cancerous lung fibroblast versus NSCLC (A549, H1975 and H3122)",~7 folds
same,IC50 higher as compared to un-deuterated DSePA,[2],4 to 5 times
